# Results taken from patent US8912222B2, “Method to control insects resistant to common insecticides” (priority 2006, dated 2014).
# Like-named read-outs stand apart in the source and are kept apart here. Marks after values point to notes of the source that are not given here.
# Tests used:
# [1] = system: insecticide-resistant Q-biotype Bemisia tabaci strain CHLORAKA; assay: Leaf-disc dip bioassay on adult whiteflies, insecticide-resistant Q-biotype strain (Example IX); format: in vivo; details: for Resistance Ratio: CHLORAKA (R) vs SUD-S (S) LC50
# Text: (§1) The common name associated with the Q-biotype of B. tabaci is the sweetpotato whitefly. […] The SUD-S strain of B. tabaci was the reference strain used in these tests and is a laboratory strain that is fully susceptible to all insecticide groups.
# (§2) Adult B. tabaci were removed from rearing cages using a motorized aspirator and, after brief narcosis, 20-30 healthy female whiteflies were placed onto each treated leaf disc. Each unit was sealed with a close-fitting, ventilated lid. Once adults had recovered from narcosis, dishes were inverted so that the leaf disc was facing abaxial side down allowing the adult whiteflies to orient normally. All bioassays consisted of three replicates per concentration (including controls). Mortality was assessed at 48 hours after initiation of the test for the commercial standards and at 72 hours for Compounds 2, 4, and 5.
# (§3) Resistance ratios were calculated using the following equation: […]
# [2] = system: Bemisia tabaci SUD-S strain (susceptible laboratory strain); assay: Leaf-disc dip bioassay on adult whiteflies, susceptible reference strain (Example IX); format: in vivo
# Text: as §1, §2, §3
# [3] = system: insecticide-resistant Q-biotype Bemisia tabaci strain CHLORAKA; assay: Leaf-disc dip bioassay on adult whiteflies, neonicotinoid-resistant Q-biotype strain (Example VII); format: in vivo; details: for mortality at 40 ppm / mortality at 100 ppm / mortality at 500 ppm: 72 h; for Resistance Ratio: CHLORAKA (R) vs SUD-S (S) LC50
# Method: (§4) The activity of commercial, neonicotinoid insecticides was also assessed and served as the basis for comparisons of relative efficacy on this insecticide-resistant whitefly strain.
# as §1
# (§5) Technical samples of Compounds 6 and 7 were initially dissolved in 90% acetone in distilled water (containing 0.01% Agral) to obtain 5000 ppm stock solutions. […] Commercial formulations of imidacloprid (Confidor, 200SL), thiamethoxam (Actara, 25WG) and acetamiprid (Mospilan, 20SP) were diluted using distilled water containing 0.01% Agral.
# as §2, with “6” for “2, 4,”, “7.” for “5.”
# (§6) Compounds 6, 7 and the commercial neonicotinoid insecticides imidacloprid, thiamethoxam and acetamiprid were tested in discriminating concentration bioassays against both whitefly strains. More extensive concentration-response bioassays against both whitefly strains were conducted for Compounds 6, 7 and imidacloprid. […] Resistance ratios were calculated using the following equation: […]
# [4] = system: Bemisia tabaci SUD-S strain (susceptible laboratory strain); assay: Leaf-disc dip bioassay on adult whiteflies, susceptible reference strain (Example VII); format: in vivo; details: for mortality at 40 ppm / mortality at 100 ppm / mortality at 500 ppm: 72 h
# Method: as §4, §1, §5
# as §2, with “6” for “2, 4,”, “7.” for “5.”
# as §6
# [5] = system: insecticide-resistant B-biotype Bemisia tabaci strain GUA-MIX; assay: Leaf-disc dip bioassay on adult whiteflies, neonicotinoid-resistant B-biotype strain (Example VIII); format: in vivo; details: for Resistance Ratio: GUA-MIX (R) vs SUD-S (S) LC50
# Method: as §4, with “The insecticidal activity of Compound 7 on adults from an insecticide-resistant, B-biotype Bemisia tabaci strain was assessed. The” for “The”
# (§7) The common name associated with the B-biotype of B. tabaci is the silverleaf whitefly. The strain used in these tests, “GUA-MIX”, was collected from a variety of crops situated in the Zacapa Valley of Guatemala in January of 2004. […] The SUD-S strain of B. tabaci was the reference strain used in these tests and is a laboratory strain that is fully susceptible to all insecticide groups.
# (§8) A technical sample of Compound 7 was initially dissolved in 90% acetone in distilled water (containing 0.01% Agral) to obtain a 5000 ppm stock solution. […] Commercial formulations of imidacloprid (Confidor, 200SL), thiamethoxam (Actara, 25WG) and acetamiprid (Mospilan, 20SP) were diluted using distilled water containing 0.01% Agral.
# as §2, with “Compound 7.” for “Compounds 2, 4, and 5.”
# as §6, with “Compound” for “Compounds 6,”
# [6] = system: Bemisia tabaci SUD-S strain (susceptible laboratory strain); assay: Leaf-disc dip bioassay on adult whiteflies, susceptible reference strain (Example VIII); format: in vivo
# Method: as §4, with “The insecticidal activity of Compound 7 on adults from an insecticide-resistant, B-biotype Bemisia tabaci strain was assessed. The” for “The”
# as §7, §8
# as §2, with “Compound 7.” for “Compounds 2, 4, and 5.”
# as §6, with “Compound” for “Compounds 6,”
# [7] = system: insecticide-resistant Myzus persicae strain 4013A; assay: Leaf-disc dip bioassay on adult aphids, insecticide-resistant strain (Example IX); details: for Resistance Ratio: 4013A (R) vs US1L (S) LC50
# Text: (§9) Activity was compared to that of commercial insecticides representing major insecticide classes.
# (§10) The common name associated with Myzus persicae is the green peach aphid. […] The “US1L” strain of M. persicae was the reference strain used in these tests.
# (§11) Subsequent dilutions used a 10% solution of acetone in distilled water (containing 0.01% Agral®) as the diluent.
# (§12) For M. persicae bioassays, discs cut from fully expanded leaves of Chinese cabbage (Brassica rapa ssp. Pekinensis cv. Won Bok) plants were dipped into serial dilutions of insecticide, allowed to air-dry, and placed onto agar-water (1%) beds in plastic Petri-dishes. Leaf discs immersed in the diluent only were used for controls. Adults were removed from rearing boxes and, using a fine camel-hair paint brush, 10 healthy, apterous females were placed onto each treated leaf disc and each unit sealed with a close-fitting, ventilated lid. All bioassays consisted of three replicates per dose (including controls). Mortality was scored at 24, 48 and 72 h following initial exposure for all compounds and the 72 h data were used for all analyses.
# (§13) Mortality data were subjected to probit analysis to derive LC50 and LC90 estimates. Resistance ratios were calculated using the following equation: […]
# [8] = system: Myzus persicae US1L strain (susceptible)
# Text: as §9, §10, §11, §12, §13
# [9] = system: field-collected populations of the whitefly, Bemisia tabaci; details: field-collected B. tabaci strains, late 1990s onward; literature; cited from earlier work
# [10] = probit analysis, mortality at 72 hours for Compounds 2, 4, 5, 48 hours for commercial standards
# [11] = Bemisia tabaci, read-out: Mortality, R Strain (CHLORAKA)
# [12] = Bemisia tabaci, read-out: Mortality, S Strain (SUD-S)
# [13] = Bemisia tabaci, 72 h, read-out: Mortality, R Strain (GUA-MIX)
# [14] = Bemisia tabaci, 72 h, read-out: Mortality, S Strain (SUD-S)
# [15] = probit analysis, 72 h mortality data
# [16] = Bemisia tabaci, 48 h, read-out: Mortality, R Strain (CHLORAKA)
# [17] = Bemisia tabaci, 48 h, read-out: Mortality, S Strain (SUD-S)
# [18] = Bemisia tabaci, 48 h, read-out: Mortality, R Strain (GUA-MIX)
# [19] = probit analysis, mortality at 72 hours for Compounds 6 and 7, 48 hours for commercial standard
# [20] = probit analysis, mortality at 72 hours for Compound 7, 48 hours for commercial standard
smiles,measurement,setting,value
"CCCSP(=O)(OCC)Oc1ccc(Br)cc1Cl (stereo not shown) [Profenofos, profenofos]",Resistance Ratio,[1],189 ^
same,"LC50, R strain (CHLORAKA)",[1]; [10],374 ppm
same,"LC50, S strain (SUD-S)",[2]; [10],2.0 ppm
"C[C@@H](c1ccc(Cl)nc1)S(C)(=O)=NC#N (single isomer, unassigned) [Compound 7]",mortality at 40 ppm,[3]; [11],37%
same,mortality at 100 ppm,[3]; [11],79%
same,mortality at 500 ppm,[3]; [11],97%
same,Resistance Ratio,[3],5.9
same,"LC50, R strain (CHLORAKA)",[3]; in vivo,53 ppm
same,mortality at 40 ppm,[4]; [12],98%
same,mortality at 100 ppm,[4]; [12],97%
same,mortality at 500 ppm,[4]; [12],100%
same,"LC50, S strain (SUD-S)",[4]; in vivo,9.0 ppm
same,mortality at 40 ppm,[5]; [13],70%
same,mortality at 100 ppm,[5]; [13],79%
same,Resistance Ratio,[5],3.3
same,"LC50, R strain (GUA-MIX)",[5]; in vivo,30.3 ppm
same,mortality at 40 ppm,[6]; [14],84%
same,mortality at 100 ppm,[6]; [14],95%
same,"LC50, S strain (SUD-S)",[6]; in vivo,9.3 ppm
"CC1(C)[C@H](C(=O)O[C@H](C#N)c2cccc(Oc3ccccc3)c2)[C@@H]1C=C(Br)Br [Deltamethrin, deltamethrin]",Resistance Ratio,[1],815 ^
same,"LC50, R strain (CHLORAKA)",[1]; [10],325 ppm
same,Resistance Ratio,[7],60
same,"LC50, R strain (4013A)",[7]; in vivo,92 ppm
same,"LC50, S strain (SUD-S)",[2]; [10],0.4 ppm
same,"LC50, S strain (US1L)",[8]; [15],1.5 ppm
"CN1COCN(Cc2cnc(Cl)s2)/C1=N\[N+](=O)[O-] [Thiamethoxam, thiamethoxam]",mortality at 32 ppm,[3]; [16],0%
same,mortality at 512 ppm,[3]; [16],15%
same,mortality at 32 ppm,[4]; [17],85%
same,mortality at 512 ppm,[4]; [17],94%
same,resistance of more recently-collected whitefly strains,[9],comparable levels of resistance
same,mortality at 25 ppm,[5]; [18],10%
same,mortality at 250 ppm,[5]; [18],51%
same,mortality at 2500 ppm,[5]; [18],87%
same,mortality at 32 ppm,[6]; [17],57%
same,mortality at 128 ppm,[6]; [17],73%
"Cc1nc(N(C)C)nc(OC(=O)N(C)C)c1C [Pirimicarb, pirimicarb]",Resistance Ratio,[7],>60**^
same,"LC50, R strain (4013A)",[7]; [15],>1000 ppm
same,"LC50, S strain (US1L)",[8]; [15],14.8 ppm
"C[C@H](c1ccc(Cl)nc1)S(C)(=O)=NC#N (single isomer, unassigned) [Compound 6]",mortality at 40 ppm,[3]; [11],39%
same,mortality at 100 ppm,[3]; [11],79%
same,mortality at 500 ppm,[3]; [11],96%
same,Resistance Ratio,[3],6.1
same,"LC50, R strain (CHLORAKA)",[3]; in vivo,45 ppm
same,mortality at 40 ppm,[4]; [12],99%
same,mortality at 100 ppm,[4]; [12],100%
same,mortality at 500 ppm,[4]; [12],100%
same,"LC50, S strain (SUD-S)",[4]; in vivo,7.4 ppm
"O=[N+]([O-])NC1=NCCN1Cc1ccc(Cl)nc1 [Imidacloprid, imidacloprid]",Resistance Ratio,[1],>800**
same,effect of exposure on adults of the CHLORAKA strain,[1]; imidacloprid at 1000 ppm,largely unaffected
same,"LC50, R strain (CHLORAKA)",[1]; [10],>1000 ppm
same,Resistance Ratio,[7],17
same,"LC50, R strain (4013A)",[7]; [15],15.3 ppm
same,"LC50, S strain (SUD-S)",[2]; [10],1.2 ppm
same,mortality at 32 ppm,[3]; [16],2%
same,mortality at 128 ppm,[3]; [16],2%
same,mortality at 4096 ppm,[3]; [16],25%
same,Resistance Ratio,[3],>930**
same,effect of exposure on adults of the CHLORAKA strain,[3]; imidacloprid at 1000 ppm,largely unaffected
same,"LC50, R strain (CHLORAKA)",[3]; [19],>4000 ppm
same,mortality at 32 ppm,[4]; [17],83%
same,mortality at 128 ppm,[4]; [17],95%
same,"LC50, S strain (SUD-S)",[4]; [19],4.3 ppm
same,"LC50, S strain (US1L)",[8]; [15],0.9 ppm
same,resistance of more recently-collected whitefly strains,[9],more than 100 fold
same,mortality at 32 ppm,[5]; [18],8%
same,mortality at 128 ppm,[5]; [18],39%
same,mortality at 2048 ppm,[5]; [18],49%
same,Resistance Ratio,[5],>45.5**
same,effect on the majority of adults of the GUA-MIX strain,[5]; imidacloprid concentrations of 1000 ppm,largely unaffected
same,"LC50, R strain (GUA-MIX)",[5]; [20],>500.0 ppm
same,mortality at 32 ppm,[6]; [17],74%
same,mortality at 128 ppm,[6]; [17],87%
same,"LC50, S strain (SUD-S)",[6]; [20],11.2 ppm
"C/C(=N\C#N)N(C)Cc1ccc(Cl)nc1 [Acetamiprid, acetamiprid]",mortality at 32 ppm,[3]; [16],2%
same,mortality at 512 ppm,[3]; [16],30%
same,mortality at 32 ppm,[4]; [17],52%
same,mortality at 512 ppm,[4]; [17],79%
same,resistance of more recently-collected whitefly strains,[9],comparable levels of resistance
same,mortality at 32 ppm,[5]; [18],1%
same,mortality at 512 ppm,[5]; [18],63%
same,mortality at 32 ppm,[6]; [17],65%
same,mortality at 512 ppm,[6]; [17],98%
"CC(c1ccc(Cl)nc1)S(C)(=O)=NC#N (stereo not shown) [Compound 5, [1-(6-Chloropyridin-3-yl)ethyl](methyl)oxido-λ^4-sulfanylidenecyanamide]",Resistance Ratio,[1],2.9
same,"LC50, R strain (CHLORAKA)",[1]; in vivo,13.2 ppm
same,Resistance Ratio,[7],0.2
same,"LC50, R strain (4013A)",[7]; [15],12.5 ppm
same,"LC50, S strain (SUD-S)",[2]; in vivo,4.5 ppm
same,"LC50, S strain (US1L)",[8]; in vivo,62.3 ppm
"CC(c1ccc(C(F)(F)F)nc1)S(C)(=O)=NC#N (stereo not shown) [Compound 2, [1-(6-Trifluoromethylpyridin-3-yl)ethyl](methyl)-oxido-λ^4-sulfanylidenecyanamide]",Resistance Ratio,[1],2.8
same,"LC50, R strain (CHLORAKA)",[1]; [10],5.0 ppm
same,Resistance Ratio,[7],0.4
same,"LC50, R strain (4013A)",[7]; [15],1.52 ppm
same,"LC50, S strain (SUD-S)",[2]; [10],1.8 ppm
same,"LC50, S strain (US1L)",[8]; [15],4.13 ppm
"CS(=O)(Cc1ccc(Cl)nc1)=NC#N (stereo not shown) [Compound 4, [(6-Chloropyridin-3-yl)methyl](methyl)oxido-λ^4-sulfanylidenecyanamide]",Resistance Ratio,[1],5.2
same,"LC50, R strain (CHLORAKA)",[1]; in vivo,16.5 ppm
same,Resistance Ratio,[7],0.7
same,"LC50, R strain (4013A)",[7]; [15],103 ppm
same,"LC50, S strain (SUD-S)",[2]; in vivo,3.1 ppm
same,"LC50, S strain (US1L)",[8]; in vivo,146 ppm
